Data: patent US8816095B2, “Na channels, disease, and related assays and compositions” (Georgetown University, priority 2008, dated 2014)

How the values were obtained:
[1] = system: PC-3 cells; test: PC-3 MTT cell viability assay; type: cell-based; settings: Homo sapiens, read-out: GI50 ± SEM (10 μM), DPH and JDA-3-135 previously determined
Text: Following the determination that compound CDPNS inhibits the VGSCs that are present in androgen independent PC-3 cells, a 3-(4,5-Dimethylthiazol-2-yl)-2,5-diphenyltetrazolium bromide (MTT) cell viability assay was utilized to measure the ability of compound CDPNS to inhibit PC-3 cell growth via VGSC blockade. In this experiment data yielded from CDPNS was compared to previously determined DPH and JDA-3-135 antiproliferation data (Table 10).

[2] = system: human prostate tissue; test: Staining of human prostate paraffin embedded tissue slices; settings: 100 μM
Procedure: The binding and localization of compound 26 in prostate and prostate cancer tissue was studied. Human prostate paraffin embedded tissue slices were stained with 100 μM of compound 26 and dansyl amine.

[3] = system: PC-3 cells; test: PC-3 cell growth inhibition assay (WST-8); type: cell-based; settings: Homo sapiens, WST-8, 48 hours
Procedure: The effect of compound 2 was studied on the proliferation of human androgen independent prostate cancer (PC-3) cells, using a cell viability assay with WST-8. […].
PC-3 cells were added to the wells of a 96 well plate at 7500 cells per well in 100 uL of RPMI medium with 10% serum and allowed to plate down overnight. The medium was then removed and replaced with serum free medium containing the appropriate concentration of drug. DMSO concentration was kept below 1%. At this time WST-8 cell counting reagent was added to the control (T=0) wells and allowed to incubate for 2 hours and the absorbance was read at 450 nm to determine the starting number of cells per well. The plates were incubated for 48 hours, the medium was removed and the wells were washed with 100 uL of PBS. The PBS was removed that the wells were filled with 110 uL of serum free RPMI media containing the WST-8 reagent. After two hours of incubation, the plates absorbance was read at 450 nm and normalized to the control value.

[4] = molecular target: T1, human Nav1.2 (Homo sapiens, UniProt Q99250); test: hNav1.2 functional block, whole-cell patch clamp; type: cell-based
T1 construct: host or cells: HEK
Procedure: Of the 20 analogs tested, six had [^3H]-BTX displacement characteristics much greater then that of phenyloin (Table 7), see Schemes 5, 6, 7 and 8 for the chemical synthesis and structure of the tested compounds. Compound 26, having the greatest [^3H]-BTX displacement at 86% ([…]), was further tested for VGSC functional blocking ability in HEK cells stably expressing Nav1.2 (Table 8).
In addition the functional blocking ability of 9 was tested after site two affinities was confirmed. The potential reason for this increased blocking ability stems from the dansyl addition in a hydrophobically receptive region of the binding site in the VGSC (Anderson, J. D., et al. Mol. Cancer. Ther. 2003, 2, 1149-1154; Lenkowski, P et al. Neuropharmacology, 2007, 52, 1044-1054). This enhanced potency could be due to the dansyl substituent interacting with L1465 and 11469, located in S6 of domain III in the binding site, which are believed to be the source of hydrophobic receptivity 17. The ability to inhibit VGSC currents is an important property and represents functional blocking. The ability of CDPNS to inhibit sodium channel currents was assessed at 10 and 100 μM against human Nav1.2 by patch clamp assay (FIG. 10).
Human embryonic kidney cells (HEK) cells stably expressing human Nav1.2 were a kind gift from Dr. H. A. Hartmann (University of Baltimore, Md., USA) and were grown in DMEM/F12 media (Invitrogen, Corp, CA, USA) supplemented with 10% fetal bovine serum, penicillin (100 U/ml), streptomycin (100 μg/ml) and G418 (500 μg/ml; Sigma, Mo., USA). Cells were grown in a humidified atmosphere of 5% CO2 and 95% air at 37° C.
Sodium currents were recorded using the whole-cell configuration of the patch clamp recording technique with an Axopatch 200 amplifier (Axon Instruments, Foster City, Calif.). All voltage protocols were applied using pCLAMP 9 software (Axon, USA) and a Digidata 1322A (Axon, USA). Currents were amplified and low pass filtered (2 kHz) and sampled at 33 kHz. Borosilicate glass pipettes were pulled using a Brown-Flaming puller (model P87, Sutter Instruments Co, Novato, Calif.) and heat polished to produce electrode resistances of 0.5-1.5 MΩ when filled with the following electrode solution (in mM); CsCl 130, MgCl2 1, MgATP 5, BAPTA 10, HEPES 5 (pH adjusted to 7.4 with CsOH). Cells were plated on glass coverslips and superfused with solution containing the following composition; (in mM) NaCl 130, KCl 4, CaCl2 1, MgCl2 5, HEPES 5, and glucose 5 (pH adjusted to 7.4 with NaOH).
Compound 26 was prepared as 100 mM stock solutions in dimethyl sulfoxide (DMSO) and diluted to desired concentration in perfusion solution. The maximum DMSO concentration used was 0.1% and had no effect on current amplitude. All experiments were performed at room temperature (20-22° C.). After establishing whole-cell, a minimum series resistance compensation of 75% was applied. Sodium currents were elicited by a depolarizing step from a holding potential of −100 mV to +10 mV for a duration of 25 ms at 15 s intervals. Compound 26 was applied after a 3 min control period and continued until a steady state current amplitude was observed. All data represent percentage mean block±standard error of the mean (S.E.M.).

[5] = system: site 2 of the VGSC; test: [3H]-BTX-B displacement assay at site 2; type: binding, rat; settings: for % [3H]-BTX Inhibition (40 μM) / % [3H]-BTX Displacement (40 μm): rat brain synaptoneurosomes; for % [3H]-BTX Inhibition (40 μM): Table 9; for % [3H]-BTX Displacement (40 μm): Table 13
[6] = molecular target: hNav1.2 (Homo sapiens, UniProt Q99250); settings: whole-cell patch clamp, hNav1.2 expressing HEK cells; read-out: hNav1.2 electrophysiology IC50; cited from earlier work
[7] = read-out: GI50 in PC3 prostate cancer cells

T1 sequence (Q99250 whole entry): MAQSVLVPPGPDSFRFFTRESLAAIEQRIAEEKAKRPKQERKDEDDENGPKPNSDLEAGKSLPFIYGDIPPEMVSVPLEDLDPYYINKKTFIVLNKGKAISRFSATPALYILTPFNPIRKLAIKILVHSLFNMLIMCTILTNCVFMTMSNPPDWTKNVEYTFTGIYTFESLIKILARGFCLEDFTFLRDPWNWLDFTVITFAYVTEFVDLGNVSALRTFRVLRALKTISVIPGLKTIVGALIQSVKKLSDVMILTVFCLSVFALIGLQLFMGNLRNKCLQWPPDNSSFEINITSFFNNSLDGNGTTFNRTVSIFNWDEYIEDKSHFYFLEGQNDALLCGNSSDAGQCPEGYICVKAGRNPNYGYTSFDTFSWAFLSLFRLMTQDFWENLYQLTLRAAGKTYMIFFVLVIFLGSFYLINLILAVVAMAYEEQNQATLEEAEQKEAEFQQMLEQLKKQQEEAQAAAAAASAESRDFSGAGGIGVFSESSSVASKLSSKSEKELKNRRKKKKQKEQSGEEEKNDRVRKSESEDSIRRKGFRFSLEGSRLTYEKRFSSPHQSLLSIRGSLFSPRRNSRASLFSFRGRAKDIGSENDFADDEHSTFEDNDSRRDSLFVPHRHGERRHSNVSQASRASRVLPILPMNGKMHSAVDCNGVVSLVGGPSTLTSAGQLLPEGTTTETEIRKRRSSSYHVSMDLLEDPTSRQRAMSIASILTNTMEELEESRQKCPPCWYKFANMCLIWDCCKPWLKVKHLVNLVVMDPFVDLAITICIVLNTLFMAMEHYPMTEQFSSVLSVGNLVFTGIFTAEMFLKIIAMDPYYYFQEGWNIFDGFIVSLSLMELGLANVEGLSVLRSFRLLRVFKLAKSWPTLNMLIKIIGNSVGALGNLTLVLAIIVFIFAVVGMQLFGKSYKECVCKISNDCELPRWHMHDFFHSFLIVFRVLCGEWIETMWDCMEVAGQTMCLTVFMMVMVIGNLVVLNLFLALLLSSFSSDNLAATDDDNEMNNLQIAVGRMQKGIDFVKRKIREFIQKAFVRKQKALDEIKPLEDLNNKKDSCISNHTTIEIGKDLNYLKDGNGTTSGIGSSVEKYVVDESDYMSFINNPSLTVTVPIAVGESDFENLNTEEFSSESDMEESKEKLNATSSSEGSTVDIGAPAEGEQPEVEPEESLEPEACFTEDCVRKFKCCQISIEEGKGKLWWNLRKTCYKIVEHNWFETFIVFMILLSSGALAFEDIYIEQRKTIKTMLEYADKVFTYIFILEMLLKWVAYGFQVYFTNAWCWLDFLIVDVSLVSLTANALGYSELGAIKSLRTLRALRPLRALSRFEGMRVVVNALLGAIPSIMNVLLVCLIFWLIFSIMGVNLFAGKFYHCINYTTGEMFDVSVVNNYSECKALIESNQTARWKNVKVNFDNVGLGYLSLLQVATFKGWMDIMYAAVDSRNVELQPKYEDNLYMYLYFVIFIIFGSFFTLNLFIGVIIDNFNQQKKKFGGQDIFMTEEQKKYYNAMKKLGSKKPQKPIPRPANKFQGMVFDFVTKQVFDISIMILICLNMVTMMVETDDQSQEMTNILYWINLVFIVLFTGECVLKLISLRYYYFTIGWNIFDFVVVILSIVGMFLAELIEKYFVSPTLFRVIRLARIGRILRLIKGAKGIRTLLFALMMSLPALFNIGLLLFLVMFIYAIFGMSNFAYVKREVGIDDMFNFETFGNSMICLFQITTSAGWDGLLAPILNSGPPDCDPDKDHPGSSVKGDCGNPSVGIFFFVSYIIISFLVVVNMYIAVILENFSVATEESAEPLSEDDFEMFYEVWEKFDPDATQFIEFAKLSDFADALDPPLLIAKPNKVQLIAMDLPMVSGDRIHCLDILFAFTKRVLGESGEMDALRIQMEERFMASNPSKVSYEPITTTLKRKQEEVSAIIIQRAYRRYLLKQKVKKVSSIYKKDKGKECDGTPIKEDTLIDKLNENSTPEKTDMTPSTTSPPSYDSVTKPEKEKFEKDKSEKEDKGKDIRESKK
Sequence of hNav1.2 (Q99250 whole entry): as above

SMILES	GI50 [1] [µM]	binding to human prostate tissue (microscopy) [2]	GI50 [3, 7] [µM]	GI50 ([3]; read-out: PC3 GI50 (μg)) [µM]	% hNaV 1.2 Functional Block (10 μM) ([4]; Table 8) [%]	% hNaV 1.2 Functional Block (10 μM) ([4]; Table 8, listed as CDPNS) [%]	% hNaV 1.2 Functional Block (10 μM) ([4]; Table 9) [%]	% hNaV 1.2 Functional Block (10 μM) ([4]; Table 9, listed as CDPNS) [%]	% [3H]-BTX Inhibition (40 μM) [5] [%]	% [3H]-BTX Displacement (40 μm) [5] [%]	[3H]-BTX-B Binding Data, Displacement % ([5]; Screen at 40 μM, 2 replicates, referenced to Aconitine) [%]	IC50 [6] [µM]	% Nav 1.2 Functional Block (10 μm) ([4]; 10 μm, Table 13) [%]
CN(C)c1cccc2c(S(=O)(=O)NCCCCCC3(c4cccc(Cl)c4)NC(=O)NC3=O)cccc12 (centres unmarked) [Compound 26, N-(5-(4-(3-chlorophenyl)-2,5-dioxoimidazolidin-4-yl)pentyl)-5-(dimethylamino)naphthalene-1-sulfonamide]	36	visible due to binding	9.95 ± 0.07	9.95 ± 0.07	58.9±4.1	58.9±4.15	58.9 ± 4.1	58.9±4.1	86.4	86.4	86		
CCCCCCCC1(c2cccc(Cl)c2)NC(=O)NC1=O (centres unmarked) [JDA-3-135]	18.6 ± 1.5		18.97 ± 0.04	18.97 ± 0.04	30.5 ± 5.1		30.5 ± 5.1		69.6	69.6		13.9	30.5 ± 5.1
